{"source": "patent US12083227B2", "about": "“Solid pharmaceutical formulations for treating endometriosis, uterine fibroids, polycystic ovary syndrome or adenomyosis” (priority 2017, dated 2024)", "key": {"[1]": {"target": "T1, organic anion transporting polypeptide (OATP)1B1 (Homo sapiens, UniProt Q9Y6L6)", "T1 sequence (Q9Y6L6 1-691)": "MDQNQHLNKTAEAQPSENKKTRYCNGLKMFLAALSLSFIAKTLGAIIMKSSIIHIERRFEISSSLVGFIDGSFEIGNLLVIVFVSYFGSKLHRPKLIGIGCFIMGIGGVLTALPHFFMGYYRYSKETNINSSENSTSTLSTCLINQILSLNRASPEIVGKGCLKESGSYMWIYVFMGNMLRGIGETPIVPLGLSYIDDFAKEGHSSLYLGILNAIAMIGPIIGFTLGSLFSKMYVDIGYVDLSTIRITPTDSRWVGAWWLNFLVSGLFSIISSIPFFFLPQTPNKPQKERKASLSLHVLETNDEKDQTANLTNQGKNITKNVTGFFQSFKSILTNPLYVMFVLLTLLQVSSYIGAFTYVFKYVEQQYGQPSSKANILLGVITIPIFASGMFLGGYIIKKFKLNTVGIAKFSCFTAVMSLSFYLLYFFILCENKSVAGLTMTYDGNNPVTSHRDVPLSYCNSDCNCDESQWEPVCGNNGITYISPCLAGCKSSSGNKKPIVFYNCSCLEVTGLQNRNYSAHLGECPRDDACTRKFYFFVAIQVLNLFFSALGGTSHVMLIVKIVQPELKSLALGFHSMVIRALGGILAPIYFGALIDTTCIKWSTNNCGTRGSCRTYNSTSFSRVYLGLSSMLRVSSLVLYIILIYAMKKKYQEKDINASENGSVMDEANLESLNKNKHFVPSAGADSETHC", "test": "substrate status: OATP1B1", "from_the_text": "Elagolix is a substrate of CYP3A, P-gp, and organic anion transporting polypeptide (OATP)1B1. Clinically meaningful interactions are not expected when elagolix is co-administered with drugs that inhibit CYP3A or P-gp."}, "[2]": {"tested_on": "reproductive organs of monkeys", "test": "repeat-dose study in monkeys", "format": "in vivo, monkey", "conditions": "repeat-dose, 75, 150, 300 and 600 mg/kg/day, all doses", "from_the_text": "(§1) Based on pharmacologic actions of elagolix in humans a reversible effect on fertility may be expected in women."}, "[3]": {"test": "acid dissociation constants by potentiometric titration", "format": "physicochemical", "experimental": "The acid dissociation constants were determined by potentiometric titration method. […] The first is XH2+, where the carboxylic acid is not ionized but the secondary amine is; the molecule has an overall +1 charge, and the main species at pHs below 4.0. The second is XH, where both the carboxylic acid and the tertiary amine are ionized. […] The third is X−, where the carboxylic acid is ionized but the tertiary amine is not."}, "[4]": {"test": "lactation study in rats (elagolix in diet through gestation and lactation)", "format": "in vivo, rat", "conditions": "dams 400 mg/kg daily in diet", "experimental": "Pregnant rats were given diet containing elagolix throughout the gestation and lactation periods to achieve a daily elagolix dose of 400 mg/kg. During nursing the dams and litters were divided into restricted feeding and non-restricted groups to determine whether elagolix was secreted in the mother's milk. […] In pups of the non-restricted feeding group, elagolix plasma concentrations were measurable and approximately 1% of the mother's plasma concentrations."}, "[5]": {"tested_on": "endometriosis with associated pain in premenopausal women", "test": "Study EM-I (placebo-controlled) and its extension", "format": "in vivo, human", "conditions": "Month 6 and Month 12", "from_the_text": "Each placebo-controlled study assessed the reduction in endometriosis-associated pain over 6 months of treatment. More than 75 percent of women who completed Study EM-I and EM-II enrolled in the extension studies for an additional 6 month treatment period. Subjects were followed for up to 12 months post-treatment. The co-primary efficacy endpoints were the proportion of responders for dysmenorrhea and pelvic pain not related to menses (also known as non-menstrual pelvic pain [NMPP]) at Month 3 compared to placebo. The primary analysis independently evaluated these endpoints using a daily diary that asked patients to assess their pain and its impact on their daily activities, over the previous 24 hours. […] Women were defined as responders if they experienced clinically meaningful reduction in dysmenorrhea and/or NMPP with no increased analgesic use for endometriosis associated pain. Dyspareunia was evaluated as a secondary endpoint using the Daily Endometriosis Pain Impact Scale. Endometrial biopsies were performed in subjects in Study EM-I and its extension at Month 6 and Month 12."}, "[6]": {"tested_on": "ovulation and endometrial thickness in healthy women", "test": "3-menstrual cycle study in healthy women", "format": "in vivo, human", "conditions": "transvaginal ultrasound, 150 mg QD and 200 mg BID"}, "[7]": {"tested_on": "fertility and reproductive organs of rats", "test": "fertility study and repeat-dose study in rats", "format": "in vivo, rat", "from_the_text": "as §1"}, "[8]": {"test": "pharmacokinetics in specific populations (renal and hepatic impairment)", "format": "in vivo, human", "from_the_text": "The mean exposures are similar for women with moderate to severe or end stage renal disease (including women on dialysis) compared to women with normal renal function.\nElagolix exposures (Cmax and AUC) are similar between women with normal hepatic function and women with mild hepatic impairment. Elagolix exposures in women with moderate and severe hepatic impairment are approximately 3-fold and 7-fold, respectively, of exposures from women with normal hepatic function."}}, "data": [{"smiles": "COc1cccc(-c2c(C)n(Cc3c(F)cccc3C(F)(F)F)c(=O)n(C[C@H](NCCCC(=O)O)c3ccccc3)c2=O)c1F", "note": "[elagolix, 4-((R)-2-[5-(2-fluoro-3-methoxy-phenyl)-3-(2-fluoro-6-trifluoromethyl-benzyl)-4-methyl-2,6-dioxo-3,6-dihydro-2H-pyrimidin-1-yl]-1-phenyl-ethylamino)-butyric acid]", "values": [{"measurement": "substrate of OATP1B1", "setting": "[1]", "result": "substrate"}, {"measurement": "reproductive organ findings (cervix, uterus and vagina)", "setting": "[2]", "result": "reversible atrophy of reproductive organs"}, {"measurement": "pKa (B)", "setting": "[3]; amine", "result": 7.9}, {"measurement": "pKa (A)", "setting": "[3]; carboxylic acid", "result": 4.0}, {"measurement": "plasma concentrations in pups relative to the mother's plasma concentrations", "setting": "[4]; rat pups of non-restricted feeding group", "result": "approximately 1%"}, {"measurement": "plasma concentrations in pups", "setting": "[4]; rat pups of restricted feeding litters, post natal day 10 and 20", "result": "not measurable"}, {"measurement": "endometrial biopsy findings post-baseline (hyperplasia or cancer)", "setting": "[5]", "result": "no abnormal biopsy findings"}, {"measurement": "mean endometrial thickness compared to the pretreatment values", "setting": "[6]", "result": "dose dependent decrease"}, {"measurement": "effect on fertility", "setting": "[7]; fertility study, 50, 150, 300 mg/kg/day", "result": "no effect"}, {"measurement": "ovary findings", "setting": "[7]; repeat-dose study, 600, 800 mg/kg/day", "result": "involution and a decrease in corpora lutea in ovaries"}, {"measurement": "exposures in moderate hepatic impairment relative to normal hepatic function", "setting": "[8]; moderate hepatic impairment", "result": "approximately 3 fold"}, {"measurement": "exposures (Cmax and AUC) in renal impairment", "setting": "[8]; moderate to severe or end stage renal disease vs normal renal function", "result": "not altered"}, {"measurement": "exposures in severe hepatic impairment relative to normal hepatic function", "setting": "[8]", "result": "approximately 7 fold"}, {"measurement": "exposures in severe hepatic impairment relative to normal hepatic function", "setting": "[8]; listed as Elagolix", "result": "~7", "unit": "fold"}, {"measurement": "exposures (Cmax and AUC) in mild hepatic impairment", "setting": "[8]; vs women with normal hepatic function", "result": "similar"}]}]}
